# Measured values taken from ChEMBL document CHEMBL1201862, “PubChem BioAssay data set” (2004).
#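 Dose response: 5 concentrations. Exposure: 48 h. Format: 96-well plates. Endpoint: linear interpolation; highest concentration if not reached. GI50 = concentration required for 50% inhibition of growth.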 Activity calls are given as the source filed them. Cut-off read from the data, not from the text of the source: active = GI50 up to about 1.1 µM and inactive = higher.
# How the values were obtained:
# Experiment in all cases: NCI-60 cell line screen, 48 h
# 786-0 = test system: 786-0
# A498 = test system: A498
# A549 = test system: A549
# ACHN = test system: ACHN
# CAKI-1 = test system: CAKI-1
# CCRF-CEM = test system: CCRF-CEM
# COLO 205 = test system: COLO 205
# DU-145 = test system: DU-145
# EKVX = test system: EKVX
# HCC 2998 = test system: HCC 2998
# HCT-116 = test system: HCT-116
# HCT-15 = test system: HCT-15
# HL-60 = test system: HL-60
# HOP-62 = test system: HOP-62
# HOP-92 = test system: HOP-92
# HT-29 = test system: HT-29
# Hs-578T = test system: Hs-578T
# IGROV-1 = test system: IGROV-1
# K562 = test system: K562
# KM12 = test system: KM12
# LOX IMVI = test system: LOX IMVI
# M14 = test system: M14
# MCF7 = test system: MCF7
# MDA-MB-231 = test system: MDA-MB-231
# MDA-MB-435 = test system: MDA-MB-435
# MDA-N = test system: MDA-N
# MOLT-4 = test system: MOLT-4
# Malme-3M = test system: Malme-3M
# NCI-H226 = test system: NCI-H226
# NCI-H23 = test system: NCI-H23
# NCI-H460 = test system: NCI-H460
# NCI-H522 = test system: NCI-H522
# NCI/ADR-RES = test system: NCI/ADR-RES
# OVCAR-3 = test system: OVCAR-3
# OVCAR-4 = test system: OVCAR-4
# OVCAR-5 = test system: OVCAR-5
# OVCAR-8 = test system: OVCAR-8
# PC-3 = test system: PC-3
# RPMI-8226 = test system: RPMI-8226
# RXF 393 = test system: RXF 393
# SF-268 = test system: SF-268
# SF-295 = test system: SF-295
# SF-539 = test system: SF-539
# SK-MEL-28 = test system: SK-MEL-28
# SK-MEL-2 = test system: SK-MEL-2
# SK-MEL-5 = test system: SK-MEL-5
# SK-OV-3 = test system: SK-OV-3
# SN12C = test system: SN12C
# SNB-19 = test system: SNB-19
# SNB-75 = test system: SNB-75
# SR = test system: SR
# SW-620 = test system: SW-620
# T47D = test system: T47D
# TK-10 = test system: TK-10
# U-251 = test system: U-251
# UACC-257 = test system: UACC-257
# UACC-62 = test system: UACC-62
# UO-31 = test system: UO-31
compound,measurement,setting,value
CNC(=O)O/N=C1\N(C)CN(c2ccccc2)C12CCN(CCCC(=O)c1ccc(F)cc1)CC2,GI50,786-0,75.5 µM (inactive)
same,GI50,A498,40 µM (inactive)
same,GI50,A549,81.3 µM (inactive)
same,GI50,ACHN,83.8 µM (inactive)
same,GI50,CAKI-1,> 100 µM (inactive)
same,GI50,CCRF-CEM,99.3 µM (inactive)
same,GI50,COLO 205,18.2 µM (inactive)
same,GI50,DU-145,> 100 µM (inactive)
same,GI50,EKVX,> 100 µM (inactive)
same,GI50,HCC 2998,43 µM (inactive)
same,GI50,HCT-116,33 µM (inactive)
same,GI50,HCT-15,> 100 µM
same,GI50,HL-60,82 µM (inactive)
same,GI50,HOP-62,39.4 µM (inactive)
same,GI50,HOP-92,35.6 µM (inactive)
same,GI50,HT-29,29.1 µM (inactive)
same,GI50,Hs-578T,> 100 µM (inactive)
same,GI50,IGROV-1,46.8 µM (inactive)
same,GI50,K562,38.5 µM (inactive)
same,GI50,KM12,27.7 µM (inactive)
same,GI50,LOX IMVI,31.1 µM (inactive)
same,GI50,M14,16.9 µM (inactive)
same,GI50,MCF7,47.9 µM (inactive)
same,GI50,MDA-MB-231,33.5 µM (inactive)
same,GI50,MDA-MB-435,45.9 µM (inactive)
same,GI50,MDA-N,39.4 µM (inactive)
same,GI50,MOLT-4,69 µM (inactive)
same,GI50,Malme-3M,32.7 µM (inactive)
same,GI50,NCI-H226,> 100 µM (inactive)
same,GI50,NCI-H23,> 100 µM (inactive)
same,GI50,NCI-H460,44.1 µM (inactive)
same,GI50,NCI-H522,99.8 µM (inactive)
same,GI50,NCI/ADR-RES,45.9 µM (inactive)
same,GI50,OVCAR-3,55.1 µM (inactive)
same,GI50,OVCAR-4,27.6 µM (inactive)
same,GI50,OVCAR-5,58.2 µM (inactive)
same,GI50,OVCAR-8,> 100 µM (inactive)
same,GI50,PC-3,> 100 µM (inactive)
same,GI50,RPMI-8226,> 100 µM (inactive)
same,GI50,RXF 393,83.6 µM (inactive)
same,GI50,SF-268,> 100 µM (inactive)
same,GI50,SF-295,> 100 µM (inactive)
same,GI50,SF-539,50.6 µM (inactive)
same,GI50,SK-MEL-28,> 100 µM (inactive)
same,GI50,SK-MEL-2,60.8 µM (inactive)
same,GI50,SK-MEL-5,18.5 µM (inactive)
same,GI50,SK-OV-3,> 100 µM (inactive)
same,GI50,SN12C,> 100 µM (inactive)
same,GI50,SNB-19,> 100 µM (inactive)
same,GI50,SNB-75,1.01 µM (active)
same,GI50,SR,39.3 µM (inactive)
same,GI50,SW-620,> 100 µM (inactive)
same,GI50,T47D,> 100 µM (inactive)
same,GI50,TK-10,79.4 µM (inactive)
same,GI50,U-251,> 100 µM (inactive)
same,GI50,UACC-257,20.1 µM (inactive)
same,GI50,UACC-62,> 100 µM (inactive)
same,GI50,UO-31,90.8 µM (inactive)
Cc1ccc(C(=O)CC(O)(C(F)(F)F)C(F)(F)F)cc1[N+](=O)[O-],GI50,786-0,12.1 µM (inactive)
same,GI50,A498,21.3 µM (inactive)
same,GI50,A549,11.1 µM (inactive)
same,GI50,ACHN,15.5 µM (inactive)
same,GI50,CAKI-1,2.36 µM (inactive)
same,GI50,CCRF-CEM,4.63 µM (inactive)
same,GI50,COLO 205,16.8 µM (inactive)
same,GI50,DU-145,6.22 µM (inactive)
same,GI50,EKVX,17.9 µM (inactive)
same,GI50,HCC 2998,6.9 µM (inactive)
same,GI50,HCT-116,5.3 µM (inactive)
same,GI50,HCT-15,3.92 µM
same,GI50,HL-60,2.12 µM (inactive)
same,GI50,HOP-62,15.2 µM (inactive)
same,GI50,HOP-92,9.4 µM (inactive)
same,GI50,HT-29,1.87 µM (inactive)
same,GI50,Hs-578T,9.46 µM (inactive)
same,GI50,IGROV-1,5.05 µM (inactive)
same,GI50,K562,2.79 µM (inactive)
same,GI50,KM12,2.19 µM (inactive)
same,GI50,LOX IMVI,2.07 µM (inactive)
same,GI50,M14,6.59 µM (inactive)
same,GI50,MCF7,3.14 µM (inactive)
same,GI50,MDA-MB-231,7.55 µM (inactive)
same,GI50,MDA-MB-435,8.41 µM (inactive)
same,GI50,MDA-N,10.2 µM (inactive)
same,GI50,MOLT-4,16.7 µM (inactive)
same,GI50,Malme-3M,16.3 µM (inactive)
same,GI50,NCI-H226,20.2 µM (inactive)
same,GI50,NCI-H23,9.29 µM (inactive)
same,GI50,NCI-H460,5.78 µM (inactive)
same,GI50,NCI-H522,0.331 µM (active)
same,GI50,NCI/ADR-RES,16.3 µM (inactive)
same,GI50,OVCAR-3,2.2 µM (inactive)
same,GI50,OVCAR-4,15.8 µM (inactive)
same,GI50,OVCAR-5,18 µM (inactive)
same,GI50,OVCAR-8,10.2 µM (inactive)
same,GI50,PC-3,11.3 µM (inactive)
same,GI50,RPMI-8226,12.6 µM (inactive)
same,GI50,RXF 393,13.8 µM (inactive)
same,GI50,SF-268,9.42 µM (inactive)
same,GI50,SF-295,7 µM (inactive)
same,GI50,SF-539,17 µM (inactive)
same,GI50,SK-MEL-28,8.15 µM (inactive)
same,GI50,SK-MEL-2,13.7 µM (inactive)
same,GI50,SK-MEL-5,16.4 µM (inactive)
same,GI50,SK-OV-3,18.1 µM (inactive)
same,GI50,SN12C,10 µM (inactive)
same,GI50,SNB-19,9.06 µM (inactive)
same,GI50,SNB-75,18.3 µM (inactive)
same,GI50,SR,5.73 µM (inactive)
same,GI50,SW-620,16.8 µM (inactive)
same,GI50,T47D,13.5 µM (inactive)
same,GI50,TK-10,17.6 µM (inactive)
same,GI50,U-251,14.2 µM (inactive)
same,GI50,UACC-257,3.21 µM (inactive)
same,GI50,UACC-62,8.55 µM (inactive)
same,GI50,UO-31,5.81 µM (inactive)
Nc1ccc(Nc2cc(O)nc(O)n2)cc1,GI50,786-0,> 100 µM (inactive)
same,GI50,A498,> 100 µM (inactive)
same,GI50,A549,> 100 µM (inactive)
same,GI50,ACHN,> 100 µM (inactive)
same,GI50,CAKI-1,> 100 µM (inactive)
same,GI50,CCRF-CEM,> 100 µM (inactive)
same,GI50,DU-145,> 100 µM (inactive)
same,GI50,EKVX,> 100 µM (inactive)
same,GI50,HCC 2998,> 100 µM (inactive)
same,GI50,HCT-116,> 100 µM (inactive)
same,GI50,HCT-15,> 100 µM
same,GI50,HL-60,> 100 µM (inactive)
same,GI50,HOP-62,> 100 µM (inactive)
same,GI50,HT-29,> 100 µM (inactive)
same,GI50,Hs-578T,> 100 µM (inactive)
same,GI50,IGROV-1,> 100 µM (inactive)
same,GI50,K562,> 100 µM (inactive)
same,GI50,KM12,> 100 µM (inactive)
same,GI50,LOX IMVI,> 100 µM (inactive)
same,GI50,MCF7,> 100 µM (inactive)
same,GI50,MDA-MB-231,> 100 µM (inactive)
same,GI50,MDA-MB-435,> 100 µM (inactive)
same,GI50,MDA-N,> 100 µM (inactive)
same,GI50,MOLT-4,> 100 µM (inactive)
same,GI50,Malme-3M,> 100 µM (inactive)
same,GI50,NCI-H226,> 100 µM (inactive)
same,GI50,NCI-H23,> 100 µM (inactive)
same,GI50,NCI-H460,> 100 µM (inactive)
same,GI50,NCI-H522,> 100 µM (inactive)
same,GI50,NCI/ADR-RES,> 100 µM (inactive)
same,GI50,OVCAR-3,> 100 µM (inactive)
same,GI50,OVCAR-4,> 100 µM (inactive)
same,GI50,OVCAR-8,> 100 µM (inactive)
same,GI50,PC-3,> 100 µM (inactive)
same,GI50,RPMI-8226,> 100 µM (inactive)
same,GI50,SF-268,> 100 µM (inactive)
same,GI50,SF-295,> 100 µM (inactive)
same,GI50,SF-539,> 100 µM (inactive)
same,GI50,SK-MEL-28,> 100 µM (inactive)
same,GI50,SK-MEL-5,> 100 µM (inactive)
same,GI50,SK-OV-3,> 100 µM (inactive)
same,GI50,SN12C,> 100 µM (inactive)
same,GI50,SNB-19,> 100 µM (inactive)
same,GI50,SR,> 100 µM (inactive)
same,GI50,SW-620,> 100 µM (inactive)
same,GI50,T47D,39.3 µM (inactive)
same,GI50,TK-10,> 100 µM (inactive)
same,GI50,U-251,> 100 µM (inactive)
same,GI50,UACC-257,> 100 µM (inactive)
same,GI50,UACC-62,> 100 µM (inactive)
